Reference: patent publication US6358885B1, “Substituted phenylheterocyclic herbicides” (Mississippi State University, priority 1992, dated 2002)

How the values were obtained:
cocklebur = assay: Test B preemergence/postemergence greenhouse plant response rating 0 to 10; format: in vivo, Xanthium pensylvanicum; details: 0 to 10 scale
Outline: (§1)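 Both application timings were run together: seeds got compound preemergence, and established seedlings (two to eighteen cm) got it postemergence. Non-phytotoxic solvent carried the chemical. Ratings are visual, versus controls, at twelve to sixteen days.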

rice [1] = assay: as above; format: in vivo, Oryza sativa; details: 0 to 10 scale
Outline: as §1

soybean = assay: as above; format: in vivo, Glycine max; details: 0 to 10 scale
Outline: as §1

wild buckwheat = assay: as above; format: in vivo, Polygonum convolvulus; details: 0 to 10 scale
Outline: as §1

purple nutsedge = assay: as above; format: in vivo, Cyperus rotundus; details: 0 to 10 scale
Outline: as §1

bedstraw = assay: Test C preemergence/postemergence greenhouse plant response rating 0 to 100; format: in vivo, Galium aparine; details: POSTEMERGENCE; for Plant response rating, Bedstraw: 0 to 100 scale
Outline: (§2)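 Compounds in non-phytotoxic solvent applied preemergence to sandy loam one day after planting, postemergence at the 1–4 leaf stage, or to ~2.5 cm floodwater over silt loam.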

blackgrass = assay: as above; format: in vivo, Alopecurus myosuroides; details: POSTEMERGENCE; for Plant response rating, Blackgrass: 0 to 100 scale
Outline: as §2

chickweed = assay: as above; format: in vivo, Stellaria media; details: POSTEMERGENCE; for Plant response rating, Chickweed: 0 to 100 scale
Outline: as §2

corn = assay: as above; format: in vivo, Zea mays; details: POSTEMERGENCE; for Plant response rating, Corn: 0 to 100 scale
Outline: as §2

cotton = assay: as above; format: in vivo, Gossypium hirsutum; details: POSTEMERGENCE; for Plant response rating, Cotton: 0 to 100 scale
Outline: as §2

giant foxtail = assay: as above; format: in vivo, Setaria faberii; details: POSTEMERGENCE; for Plant response rating, Giant foxtail: 0 to 100 scale
Outline: as §2

pigweed = assay: as above; format: in vivo, Amaranthusretroflexus; details: POSTEMERGENCE; for Plant response rating Pigweed: 0 to 100 scale
Outline: as §2

sugar beet = assay: as above; format: in vivo, Beta vulgaris; details: POSTEMERGENCE; for Plant response rating, Sugar beet: 0 to 100 scale
Outline: as §2

velvetleaf = assay: as above; format: in vivo, Abutilon theophrasti; details: POSTEMERGENCE; for Plant response rating, Velvetleaf: 0 to 100 scale
Outline: as §2

rice [2] = assay: Test C flood test plant response rating 0 to 100; format: in vivo, Oryza sativa; details: for Plant response rating Rice Japonica: flood test species listed under POSTEMERGENCE, 0 to 100 scale
Outline: as §2

umbrella sedge = assay: Test C flood test plant response rating 0 to 100; format: in vivo, Cyperus difformis; details: for Plant response rating Umbrella sedge: flood test species listed under POSTEMERGENCE, 0 to 100 scale
Outline: as §2

duck salad = assay: Test C flood test plant response rating 0 to 100; format: in vivo, Heteranthera limosa; details: for Plant response rating Duck salad: flood test species listed under POSTEMERGENCE, 0 to 100 scale
Outline: as §2

[3] = POSTEMERGENCE section, flood test, Rate 4 g/ha
[4] = Rate 16 g/ha, under POSTEMERGENCE head (flood test species)

CC(C)OC(=O)c1cc(-c2nn3c(c2Cl)CCCC3)c(F)cc1Cl [Compound 44]
0: Plant response rating, Soybean (soybean; PREEMERGENCE, Rate 50 g/ha) | Plant response rating, Nutsedge (purple nutsedge; PREEMERGENCE, Rate 50 g/ha) | Plant response rating (0 to 100), Duck salad (duck salad; [3])
90: Plant response rating, Corn (corn; 250 g/ha) | Plant response rating (0 to 100), Cotton (cotton; Rate 4 g/ha) | Plant response rating (0 to 100), Pigweed (pigweed; Rate 4 g/ha) | Plant response rating (0 to 100), Velvetleaf (velvetleaf; Rate 16 g/ha) | Plant response rating Duck salad (duck salad; 250 g/ha)
60: Plant response rating (0 to 100), Bedstraw (bedstraw; Rate 4 g/ha) | Plant response rating, Blackgrass (blackgrass; 62 g/ha) | Plant response rating, Giant foxtail (giant foxtail; 62 g/ha) | Plant response rating Rice Japonica (rice [2]; 62 g/ha) | Plant response rating (0 to 100), Umbrella sedge (umbrella sedge; [4])
6: Plant response rating, Cocklebur (cocklebur; PREEMERGENCE, Rate 50 g/ha)
1: Plant response rating, Rice (rice [1]; PREEMERGENCE, Rate 50 g/ha)
30: Plant response rating (0 to 100), Blackgrass (blackgrass; Rate 4 g/ha) | Plant response rating (0 to 100), Chickweed (chickweed; Rate 4 g/ha) | Plant response rating (0 to 100), Corn (corn; Rate 4 g/ha) | Plant response rating (0 to 100), Rice Japonica (rice [2]; [4]) | Plant response rating (0 to 100), Umbrella sedge (umbrella sedge; [3]) | Plant response rating (0 to 100), Duck salad (duck salad; [4])
80: Plant response rating, Bedstraw (bedstraw; 62 g/ha) | Plant response rating (0 to 100), Bedstraw (bedstraw; Rate 16 g/ha) | Plant response rating, Blackgrass (blackgrass; 250 g/ha) | Plant response rating (0 to 100), Chickweed (chickweed; Rate 16 g/ha) | Plant response rating (0 to 100), Sugar beet (sugar beet; Rate 4 g/ha) | Plant response rating (0 to 100), Velvetleaf (velvetleaf; Rate 4 g/ha) | Plant response rating Umbrella sedge (umbrella sedge; 62 g/ha)
9: Plant response rating, Cocklebur (cocklebur; POSTEMERGENCE, Rate 50 g/ha) | Plant response rating, Cocklebur (cocklebur; Rate 200 g/ha, PREEMERGENCE) | Plant response rating, Rice (rice [1]; Rate 200 g/ha, POSTEMERGENCE) | Plant response rating, Wild buckwheat (wild buckwheat; PREEMERGENCE, Rate 50 g/ha) | Plant response rating, Wild buckwheat (wild buckwheat; Rate 200 g/ha, PREEMERGENCE)
10: Plant response rating, Cocklebur (cocklebur; POSTEMERGENCE, Rate 200 g/ha) | Plant response rating, Wild buckwheat (wild buckwheat; POSTEMERGENCE, Rate 50 g/ha) | Plant response rating, Wild buckwheat (wild buckwheat; Rate 200 g/ha, POSTEMERGENCE) | Plant response rating (0 to 100), Rice Japonica (rice [2]; [3])
4: Plant response rating, Nutsedge (purple nutsedge; POSTEMERGENCE, Rate 50 g/ha)
85: Plant response rating Rice Japonica (rice [2]; 250 g/ha)
100: Plant response rating, Bedstraw (bedstraw; 250 g/ha) | Plant response rating, Chickweed (chickweed; 250 g/ha) | Plant response rating, Cotton (cotton; 62 g/ha) | Plant response rating, Cotton (cotton; 250 g/ha) | Plant response rating (0 to 100), Cotton (cotton; Rate 16 g/ha) | Plant response rating, Giant foxtail (giant foxtail; 250 g/ha) | Plant response rating Pigweed (pigweed; 62 g/ha) | Plant response rating Pigweed (pigweed; 250 g/ha) | Plant response rating (0 to 100), Pigweed (pigweed; Rate 16 g/ha) | Plant response rating, Sugar beet (sugar beet; 62 g/ha) | Plant response rating, Sugar beet (sugar beet; 250 g/ha) | Plant response rating (0 to 100), Sugar beet (sugar beet; Rate 16 g/ha) | Plant response rating, Velvetleaf (velvetleaf; 62 g/ha) | Plant response rating, Velvetleaf (velvetleaf; 250 g/ha) | Plant response rating Umbrella sedge (umbrella sedge; 250 g/ha)
50: Plant response rating, Corn (corn; 62 g/ha)
5: Plant response rating, Rice (rice [1]; POSTEMERGENCE, Rate 50 g/ha)
70: Plant response rating Duck salad (duck salad; 62 g/ha)
20: Plant response rating (0 to 100), Giant foxtail (giant foxtail; Rate 4 g/ha)
8: Plant response rating, Soybean (soybean; POSTEMERGENCE, Rate 50 g/ha) | Plant response rating, Soybean (soybean; Rate 200 g/ha, POSTEMERGENCE) | Plant response rating, Nutsedge (purple nutsedge; Rate 200 g/ha, POSTEMERGENCE)
95: Plant response rating, Chickweed (chickweed; 62 g/ha)
40: Plant response rating (0 to 100), Blackgrass (blackgrass; Rate 16 g/ha) | Plant response rating (0 to 100), Corn (corn; Rate 16 g/ha) | Plant response rating (0 to 100), Giant foxtail (giant foxtail; Rate 16 g/ha)
3: Plant response rating, Soybean (soybean; Rate 200 g/ha, PREEMERGENCE) | Plant response rating, Nutsedge (purple nutsedge; Rate 200 g/ha, PREEMERGENCE)
2: Plant response rating, Rice (rice [1]; Rate 200 g/ha, PREEMERGENCE)
